Source: PubChem BioAssay (NCI)
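Protocol summary: plate cells (96-well), add compound at 5 concentrations, incubate 48 h, interpolate endpoints linearly. The concentration for full growth arrest is given as TGI.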

Experiments:
Assay in all cases: DTP human tumour cell line panel, 48 h
SK-OV-3 ovarian = tested on: SK-OV-3 ovarian
DU-145 prostate = tested on: DU-145 prostate
UACC-62 melanoma = tested on: UACC-62 melanoma
NCI-H23 lung = tested on: NCI-H23 lung
SK-MEL-2 melanoma = tested on: SK-MEL-2 melanoma
XF 498 CNS = tested on: XF 498 CNS
M19-MEL melanoma = tested on: M19-MEL melanoma
NCI-H226 lung = tested on: NCI-H226 lung
HCT-15 colon = tested on: HCT-15 colon
HS 578T breast = tested on: HS 578T breast
MALME-3M melanoma = tested on: MALME-3M melanoma
HCT-116 colon = tested on: HCT-116 colon
M14 melanoma = tested on: M14 melanoma
OVCAR-4 ovarian = tested on: OVCAR-4 ovarian
SN12C renal = tested on: SN12C renal
UACC-257 melanoma = tested on: UACC-257 melanoma
SK-MEL-5 melanoma = tested on: SK-MEL-5 melanoma
DMS 114 small cell lung = tested on: DMS 114 small cell lung
OVCAR-5 ovarian = tested on: OVCAR-5 ovarian
SF-539 CNS = tested on: SF-539 CNS
LOX IMVI melanoma = tested on: LOX IMVI melanoma
KM12 colon = tested on: KM12 colon
DMS 273 small cell lung = tested on: DMS 273 small cell lung
ACHN renal = tested on: ACHN renal
HCC-2998 colon = tested on: HCC-2998 colon
HT29 colon = tested on: HT29 colon
COLO 205 colon = tested on: COLO 205 colon
RPMI-8226 leukemia = tested on: RPMI-8226 leukemia
UO-31 renal = tested on: UO-31 renal
SNB-19 CNS = tested on: SNB-19 CNS
HOP-92 NSCLC = tested on: HOP-92 NSCLC
OVCAR-3 ovarian = tested on: OVCAR-3 ovarian
CAKI-1 renal = tested on: CAKI-1 renal
NCI/ADR-RES ovarian = tested on: NCI/ADR-RES ovarian
KM20L2 colon = tested on: KM20L2 colon
PC-3 prostate = tested on: PC-3 prostate
HL-60(TB) leukemia = tested on: HL-60(TB) leukemia
LXFL 529 NSCLC = tested on: LXFL 529 NSCLC
SR leukemia = tested on: SR leukemia
TK-10 renal = tested on: TK-10 renal
NCI-H460 lung = tested on: NCI-H460 lung
DLD-1 colon = tested on: DLD-1 colon
SK-MEL-28 melanoma = tested on: SK-MEL-28 melanoma
K-562 leukemia = tested on: K-562 leukemia
HOP-62 NSCLC = tested on: HOP-62 NSCLC
HOP-18 NSCLC = tested on: HOP-18 NSCLC
SW-620 colon = tested on: SW-620 colon
786-0 renal = tested on: 786-0 renal
RXF 393 renal = tested on: RXF 393 renal
SNB-75 CNS = tested on: SNB-75 CNS
A498 renal = tested on: A498 renal
NCI-H522 lung = tested on: NCI-H522 lung
SF-268 CNS = tested on: SF-268 CNS
A549 NSCLC = tested on: A549 NSCLC
OVCAR-8 ovarian = tested on: OVCAR-8 ovarian
CCRF-CEM leukemia = tested on: CCRF-CEM leukemia
SF-295 CNS = tested on: SF-295 CNS
SNB-78 CNS = tested on: SNB-78 CNS
IGROV1 ovarian = tested on: IGROV1 ovarian
MOLT-4 leukemia = tested on: MOLT-4 leukemia
U251 CNS = tested on: U251 CNS
EKVX NSCLC = tested on: EKVX NSCLC
RXF-631 renal = tested on: RXF-631 renal

CN(C)[C@H]1CC[C@H]2[C@@H]3CCC4C[C@@H](NC(=O)NC(Cc5ccccc5)c5nccs5)CC[C@]4(C)[C@H]3CC[C@]12C (stereo not given in full)
TGI (SK-OV-3 ovarian): 3.09 µM | TGI (DU-145 prostate): 6.67 µM | TGI (UACC-62 melanoma): 3.46 µM | TGI (NCI-H23 lung): 3.89 µM | TGI (SK-MEL-2 melanoma): 3.41 µM | TGI (XF 498 CNS): 2.51 µM | TGI (M19-MEL melanoma): 3.41 µM | TGI (NCI-H226 lung): 3.89 µM | TGI (HCT-15 colon): 2.03 µM | TGI (HS 578T breast): 5.36 µM | TGI (MALME-3M melanoma): 3.37 µM | TGI (HCT-116 colon): 1.33 µM | TGI (M14 melanoma): 3.23 µM | TGI (OVCAR-4 ovarian): 3.18 µM | TGI (SN12C renal): 3.36 µM | TGI (UACC-257 melanoma): 3.63 µM | TGI (SK-MEL-5 melanoma): 3.38 µM | TGI (DMS 114 small cell lung): 3.31 µM | TGI (OVCAR-5 ovarian): 3.2 µM | TGI (SF-539 CNS): 3.37 µM | TGI (LOX IMVI melanoma): 3.46 µM | TGI (KM12 colon): 3.44 µM | TGI (DMS 273 small cell lung): 3.86 µM | TGI (ACHN renal): 2.86 µM | TGI (HCC-2998 colon): 3.16 µM | TGI (HT29 colon): 1.9 µM | TGI (COLO 205 colon): 3.05 µM | TGI (RPMI-8226 leukemia): 3.28 µM | TGI (UO-31 renal): 3.38 µM | TGI (SNB-19 CNS): 3.74 µM | TGI (HOP-92 NSCLC): 2.82 µM | TGI (OVCAR-3 ovarian): 3.43 µM | TGI (CAKI-1 renal): 3.11 µM | TGI (NCI/ADR-RES ovarian): 4.83 µM | TGI (KM20L2 colon): 2.81 µM | TGI (PC-3 prostate): 2.35 µM | TGI (HL-60(TB) leukemia): 0.376 µM | TGI (LXFL 529 NSCLC): 1.61 µM | TGI (SR leukemia): 4.14 µM | TGI (TK-10 renal): 3.89 µM

CC(=O)OC1CC2C(C)(C)C(=O)C=C[C@]2(C)C2CCC3(C)C(c4ccoc4)[C@@H](O)[C@H]4O[C@]43[C@]12C (stereo not given in full)
TGI (SK-OV-3 ovarian): 42.5 µM | TGI (UACC-62 melanoma): 32.5 µM | TGI (NCI-H460 lung): 36.5 µM | TGI (DLD-1 colon): 41 µM | TGI (SK-MEL-28 melanoma): 40.5 µM | TGI (NCI-H23 lung): 34.4 µM | TGI (SK-MEL-2 melanoma): 39.6 µM | TGI (K-562 leukemia): 39.5 µM | TGI (M19-MEL melanoma): 36.5 µM | TGI (HOP-62 NSCLC): 42.6 µM | TGI (NCI-H226 lung): 33.5 µM | TGI (HOP-18 NSCLC): 45.5 µM | TGI (SW-620 colon): 35.4 µM | TGI (HCT-15 colon): 31.2 µM | TGI (786-0 renal): 31.4 µM | TGI (RXF 393 renal): 35.5 µM | TGI (MALME-3M melanoma): 51.7 µM | TGI (HCT-116 colon): 51.9 µM | TGI (SNB-75 CNS): 57.3 µM | TGI (A498 renal): 49.7 µM | TGI (M14 melanoma): 37.7 µM | TGI (OVCAR-4 ovarian): 38.8 µM | TGI (NCI-H522 lung): 28 µM | TGI (SN12C renal): 34.1 µM | TGI (UACC-257 melanoma): 41.6 µM | TGI (SK-MEL-5 melanoma): 34.2 µM | TGI (DMS 114 small cell lung): 41.9 µM | TGI (OVCAR-5 ovarian): 50 µM | TGI (SF-539 CNS): 34.2 µM | TGI (SF-268 CNS): 51.8 µM | TGI (LOX IMVI melanoma): 31.3 µM | TGI (KM12 colon): 35.1 µM | TGI (A549 NSCLC): 85.7 µM | TGI (DMS 273 small cell lung): 89.1 µM | TGI (OVCAR-8 ovarian): 36.2 µM | TGI (ACHN renal): 50 µM | TGI (HCC-2998 colon): 29.6 µM | TGI (HT29 colon): 40.3 µM | TGI (COLO 205 colon): 37.6 µM | TGI (RPMI-8226 leukemia): 67.1 µM | TGI (UO-31 renal): 31.8 µM | TGI (CCRF-CEM leukemia): 54 µM | TGI (SNB-19 CNS): 59.6 µM | TGI (HOP-92 NSCLC): 39.9 µM | TGI (OVCAR-3 ovarian): 31.8 µM | TGI (CAKI-1 renal): 45.6 µM | TGI (SF-295 CNS): 42.5 µM | TGI (SNB-78 CNS): 67.8 µM | TGI (KM20L2 colon): 33.4 µM | TGI (IGROV1 ovarian): 46.2 µM | TGI (MOLT-4 leukemia): 88.8 µM | TGI (HL-60(TB) leukemia): 46.7 µM | TGI (U251 CNS): 27.8 µM | TGI (LXFL 529 NSCLC): 37 µM | TGI (SR leukemia): 41.4 µM | TGI (TK-10 renal): 88.7 µM | TGI (EKVX NSCLC): > 100 µM

COC(=O)C(Cc1ccccc1)NC(=O)Cn1ccnc1[N+](=O)[O-] (stereo not given)
TGI (SK-OV-3 ovarian): > 100 µM | TGI (UACC-62 melanoma): > 100 µM | TGI (NCI-H460 lung): > 100 µM | TGI (SK-MEL-28 melanoma): > 100 µM | TGI (NCI-H23 lung): > 100 µM | TGI (SK-MEL-2 melanoma): > 100 µM | TGI (K-562 leukemia): > 100 µM | TGI (XF 498 CNS): > 100 µM | TGI (M19-MEL melanoma): > 100 µM | TGI (HOP-62 NSCLC): > 100 µM | TGI (NCI-H226 lung): > 100 µM | TGI (HOP-18 NSCLC): > 100 µM | TGI (SW-620 colon): > 100 µM | TGI (HCT-15 colon): > 100 µM | TGI (786-0 renal): > 100 µM | TGI (RXF 393 renal): > 100 µM | TGI (MALME-3M melanoma): > 100 µM | TGI (SNB-75 CNS): > 100 µM | TGI (A498 renal): > 100 µM | TGI (M14 melanoma): > 100 µM | TGI (OVCAR-4 ovarian): > 100 µM | TGI (NCI-H522 lung): > 100 µM | TGI (SN12C renal): > 100 µM | TGI (UACC-257 melanoma): > 100 µM | TGI (SK-MEL-5 melanoma): > 100 µM | TGI (DMS 114 small cell lung): > 100 µM | TGI (OVCAR-5 ovarian): > 100 µM | TGI (SF-539 CNS): > 100 µM | TGI (SF-268 CNS): > 100 µM | TGI (LOX IMVI melanoma): > 100 µM | TGI (KM12 colon): > 100 µM | TGI (A549 NSCLC): > 100 µM | TGI (DMS 273 small cell lung): > 100 µM | TGI (RXF-631 renal): > 100 µM | TGI (OVCAR-8 ovarian): > 100 µM | TGI (ACHN renal): > 100 µM | TGI (HT29 colon): > 100 µM | TGI (COLO 205 colon): > 100 µM | TGI (RPMI-8226 leukemia): > 100 µM | TGI (UO-31 renal): > 100 µM | TGI (CCRF-CEM leukemia): > 100 µM | TGI (SNB-19 CNS): > 100 µM | TGI (HOP-92 NSCLC): > 100 µM | TGI (CAKI-1 renal): > 100 µM | TGI (SF-295 CNS): > 100 µM | TGI (KM20L2 colon): > 100 µM | TGI (IGROV1 ovarian): > 100 µM | TGI (MOLT-4 leukemia): > 100 µM | TGI (HL-60(TB) leukemia): > 100 µM | TGI (U251 CNS): > 100 µM | TGI (LXFL 529 NSCLC): > 100 µM | TGI (TK-10 renal): > 100 µM | TGI (EKVX NSCLC): > 100 µM
